In ChEMBL document CHEMBL3046023, “Synthesis, in vitro cytotoxicity, and anti-microbial studies of 1,4-bis(4-substituted-5-mercapto-1,2,4-triazol-3-yl)butanes” (Med Chem Res, 2012):
pIC50: −log10 of the molar value. In brackets after ≈: the same amount, converted by molar mass.

What was measured:
[1] = tested on: Escherichia coli; assay: Antibacterial activity against Escherichia coli ATCC 25922 after 24 hr by serial dilution method; type: functional; details: ATCC 25922, 24 h
[2] = tested on: Staphylococcus aureus; assay: Antibacterial activity against Staphylococcus aureus ATCC 25923 after 24 hr by serial dilution method; type: functional; details: ATCC 25923, 24 h
[3] = tested on: MDA-MB-231; assay: Cytotoxicity against Homo sapiens (human) MDA-MB-231 cells after 72 hr by MTT assay; type: functional, cell-based; details: MDA-MB-231, 72 h
[4] = tested on: Bacillus subtilis; assay: Antibacterial activity against Bacillus subtilis ATCC 6633 after 24 hr by serial dilution method; type: functional; details: ATCC 6633, 24 h
[5] = tested on: A549; assay: Cytotoxicity against Homo sapiens (human) A549 cells after 72 hr by MTT assay; type: functional, cell-based; details: A549, 72 h
[6] = tested on: Pseudomonas aeruginosa; assay: Antibacterial activity against Pseudomonas aeruginosa ATCC 27853 after 24 hr by serial dilution method; type: functional; details: ATCC 27853, 24 h
[7] = tested on: HT-29; assay: Cytotoxicity against Homo sapiens (human) HT-29 cells after 72 hr by MTT assay; type: functional, cell-based; details: HT-29, 72 h

Row | Structure (SMILES) | MIC [1] [µg/mL] | MIC [2] [µg/mL] | MIC [4] [µg/mL] | MIC [6] [µg/mL] | pIC50 [3] | pIC50 [5] | pIC50 [7]
1 | Cc1cccc(-n2c(CCCCc3nnc(SCC(=O)NN)n3-c3cccc(C)c3)nnc2SCC(=O)NN)c1 | 25 (≈ 43 µM) | 25 (≈ 43 µM) | 25 (≈ 43 µM) |  | 4.40 | 4.41 | 4.42
2 | CCOc1ccc(-n2c(CCCCc3nnc(SCC(=O)NN)n3-c3ccc(OCC)cc3)nnc2SCC(=O)NN)cc1 | 12.5 (≈ 19.5 µM) | 12.5 (≈ 19.5 µM) | 6.25 (≈ 9.75 µM) | 12.5 (≈ 19.5 µM) | 4.88 | 5.04 | 5.29
3 | NNC(=O)CSc1nnc(CCCCc2nnc(SCC(=O)NN)n2C2CCCCC2)n1C1CCCCC1 | 50 (≈ 88.5 µM) |  | 100 (≈ 177 µM) |  | 4.15 | 4.19 | 4.18
4 | CCCCn1c(CCCCc2nnc(SCC(=O)NN)n2CCCC)nnc1SCC(=O)NN | 100 (≈ 195 µM) |  | 100 (≈ 195 µM) |  | 4.22 | 4.16 | 4.20
5 | CCOC(=O)CSc1nnc(CCCCc2nnc(SCC(=O)OCC)n2C2CCCCC2)n1C1CCCCC1 | 100 (≈ 169 µM) |  | 100 (≈ 169 µM) |  | 4.15 | 4.29 | 4.19
6 | CCCCn1c(CCCCc2nnc(SCC(=O)OCC)n2CCCC)nnc1SCC(=O)OCC | 100 (≈ 185 µM) |  | 100 (≈ 185 µM) |  | 4.15 | 4.21 | 4.16
7 | NNC(=O)CSc1nnc(CCCCc2nnc(SCC(=O)NN)n2-c2ccccc2)n1-c1ccccc1 | 25 (≈ 45.2 µM) | 25 (≈ 45.2 µM) | 25 (≈ 45.2 µM) | 100 (≈ 181 µM) | 4.16 | 4.20 | 4.19
8 | CCOC(=O)CSc1nnc(CCCCc2nnc(SCC(=O)OCC)n2-c2cccc(C)c2)n1-c1cccc(C)c1 | 50 (≈ 82.1 µM) | 100 (≈ 164 µM) | 50 (≈ 82.1 µM) | 100 (≈ 164 µM) | 4.60 | 4.63 | 4.59
9 | CCOC(=O)CSc1nnc(CCCCc2nnc(SCC(=O)OCC)n2-c2ccc(OCC)cc2)n1-c1ccc(OCC)cc1 | 25 (≈ 37.4 µM) | 50 (≈ 74.8 µM) | 25 (≈ 37.4 µM) | 100 (≈ 150 µM) | 4.82 | 5.03 | 4.88
10 | CCN(CC)C(=O)Sc1nnc(CCCCc2nnc(SC(=O)N(CC)CC)n2C2CCCCC2)n1C1CCCCC1 | 100 (≈ 162 µM) |  | 100 (≈ 162 µM) |  | 4.18 | 4.29 | 4.16
11 | CCCCn1c(CCCCc2nnc(SC(=O)N(CC)CC)n2CCCC)nnc1SC(=O)N(CC)CC |  |  |  |  | 4.15 | 4.20 | 4.19
12 | CCOC(=O)CSc1nnc(CCCCc2nnc(SCC(=O)OCC)n2-c2ccccc2)n1-c1ccccc1 | 50 (≈ 86.1 µM) | 100 (≈ 172 µM) | 100 (≈ 172 µM) | 100 (≈ 172 µM) | 4.49 | 4.46 | 4.29
13 | CC1(C)S[C@@H]2[C@H](NC(=O)[C@H](N)c3ccccc3)C(=O)N2[C@H]1C(=O)O [AMPICILLIN] | 6.25 (≈ 17.9 µM) | 6.25 (≈ 17.9 µM) | 12.5 (≈ 35.8 µM) | 12.5 (≈ 35.8 µM) |  |  | 
14 | COc1cccc2c1C(=O)c1c(O)c3c(c(O)c1C2=O)C[C@@](O)(C(=O)CO)C[C@@H]3O[C@H]1C[C@H](N)[C@H](O)[C@H](C)O1 [DOXORUBICIN] |  |  |  |  | 7.00 | 7.05 | 7.15

More lines, main results first:

Row | MIC [1] [µg/mL] | MIC [2] [µg/mL] | MIC [4] [µg/mL] | MIC [6] [µg/mL] | Structure (SMILES) | pIC50 [3] | pIC50 [5] | pIC50 [7]
15 | 12.5 (≈ 21.5 µM) | 12.5 (≈ 21.5 µM) | 12.5 (≈ 21.5 µM) | 100 (≈ 172 µM) | Cc1ccc(-n2c(CCCCc3nnc(SCC(=O)NN)n3-c3ccc(C)cc3)nnc2SCC(=O)NN)cc1 | 4.49 | 4.43 | 4.51
16 | 100 (≈ 164 µM) | 100 (≈ 164 µM) | 100 (≈ 164 µM) | 100 (≈ 164 µM) | CCOC(=O)CSc1nnc(CCCCc2nnc(SCC(=O)OCC)n2-c2ccc(C)cc2)n1-c1ccc(C)cc1 | 4.61 | 5.04 | 4.87
17 | 100 (≈ 144 µM) |  | 50 (≈ 71.9 µM) |  | CCOc1ccc(-n2c(CCCCc3nnc(SC(=O)N(CC)CC)n3-c3ccc(OCC)cc3)nnc2SC(=O)N(CC)CC)cc1 | 4.14 | 4.29 | 4.12
18 | 12.5 (≈ 20.6 µM) | 50 (≈ 82.4 µM) | 25 (≈ 41.2 µM) | 50 (≈ 82.4 µM) | CCN(CC)C(=O)Sc1nnc(CCCCc2nnc(SC(=O)N(CC)CC)n2-c2ccccc2)n1-c1ccccc1 | 4.83 | 4.71 | 4.84
19 | 12.5 (≈ 19.7 µM) | 25 (≈ 39.4 µM) | 12.5 (≈ 19.7 µM) | 25 (≈ 39.4 µM) | CCN(CC)C(=O)Sc1nnc(CCCCc2nnc(SC(=O)N(CC)CC)n2-c2ccc(C)cc2)n1-c1ccc(C)cc1 | 5.09 | 5.49 | 5.46
20 | 12.5 (≈ 19.7 µM) | 50 (≈ 78.8 µM) | 25 (≈ 39.4 µM) | 25 (≈ 39.4 µM) | CCN(CC)C(=O)Sc1nnc(CCCCc2nnc(SC(=O)N(CC)CC)n2-c2cccc(C)c2)n1-c1cccc(C)c1 | 4.76 | 4.82 | 4.99
